The test system of one data set is H1703 tumor cell line. Description: ATP release from squamous NSCLC H1703 tumor cells after chemotherapy (CellTiter-Glo). The class given is cell-based. The settings on record: culture supernatant, FIG. 2. The method, then:
This experiment aimed as studying ATP release from squamous NSCLC tumor cells following chemotherapy treatment. The squamous NSCLC H1703 tumor cell line was incubated separately with different chemotherapies. The measurement of ATP release was performed 24 h after Cisplatin treatment, 72 h after Carboplatin, 60 h after Oxaliplatin, 48 h after Pemetrexed, 48 h after Gemcitabine, 72 h after 5-FU, 24 h after Paclitaxel and 40 h after Docetaxel. Extracellular ATP release in the culture supernatant was measured with a luminescent-based assay (CellTiter-Glo®) and expressed in Luminescence Arbitrary Unit (AU). Means+/−SD.
Result are shown in FIG. 2, showing ATP release from H1703 tumor cell line (sqNSCLC) following the treatment with different chemotherapies, cisplatin, carboplatin, oxaliplatin, pemetrexed, gemcitabine, 5-Fu, paclitaxel and docetaxel.
On the technique in general: In ATP-based viability assays light output follows the ATP content of the culture.

Data set [1] is described as follows: Phase 1 study of IPH5201 +/- durvalumab in advanced solid tumours: safety. The settings on record: of 19 patients given IPH5201+durvalumab (1500 mg Q3W). The class given is in vivo. As for the experimental part:
A first-in-human, multicentre, non-randomised, open-label, phase 1 study was conducted in order to assess the safety, efficacy, pharmacokinetics (PK) and pharmacodynamics (PD) of IPH5201±durvalumab (Imfinzi™) in patients with advanced solid tumours. The study consisted of two consecutive dose-escalation parts: • Part 1: Ascending doses of IPH5201 (100, 300, 1000 and 3000 mg) every 3 weeks (Q3W). • Part 2: Ascending doses of IPH5201 (300, 1000 and 3000 mg) and 1500 mg durvalumab Q3W.
PD cohorts enrolled patients with advanced squamous cell lung carcinoma or advanced pancreatic ductal adenocarcinoma in the top two dose levels of Parts 1 and 2. Primary endpoints were safety and tolerability. Key secondary endpoints included preliminary antitumour activity measured by objective response and disease control per RECIST v1.1, PK and immunogenicity. Exploratory endpoints included efficacy measured by duration of response and progression-free survival (PFS) per RECIST v1.1, overall survival and assessment of biomarkers.
Key inclusion criteria were: • Adults aged ≥18 years. • Histologically or cytologically confirmed advanced solid tumours. • At least one measurable lesion per RECIST v1.1. • Refractoriness to standard therapy or disease for which no standard therapy exists. • Eastern Cooperative Oncology Group Performance Status of 0 or 1. • Archival or fresh tumour sample. • Key exclusion criteria were: • Previous treatment with any agents targeting CD73, CD39, or adenosine receptors. • Treatment with any conventional or investigational anticancer therapy within 21 days of the first planned dose. • Active or prior autoimmune or inflammatory disorders within the past 5 years. • Cardiac and vascular criteria including presence of acute coronary syndrome or thromboembolic events within 6 months prior to enrolment, congestive heart failure, serious cardiac arrhythmia requiring medication, or uncontrolled hypertension. • Untreated metastases to the central nervous system.
Overall, 57 patients received treatment (IPH5201, n=38; IPH5201+durvalumab, n=19). […] Treatment-emergent adverse events (TEAEs) occurred in 96.5% of patients; 40.4% had grade ≥3 TEAEs. […] Treatment-related adverse events (TRAEs) occurred in 66.7% of patients (37/57 (64.9%) related to IPH5201; 11/19 (57.9%) related to durvalumab). […] The most common TRAEs were infusion-related reactions (21.1%), fatigue (17.5%), nausea, arthralgia, tumour pain and pruritus (8.8% each). […] Maximum tolerated dose (MTD) was not reached.

For a further data set, the system named is MC38 cancer cell line. Description: MC38 tumor growth in huCD39KI mice (gemcitabine +/- anti-PD-L1 +/- molPH5201). The settings on record: for tumor growth compared to the control: p<0.001. The class given is in vivo, human CD39 knock-in (huCD39KI) mice. As for the experimental part: In vivo experiments were performed in human CD39 knock-in (huCD39KI) mice, genetically modified to express human CD39 in place of its murine counterpart mouse CD39. These mice were sub-cutaneously (s.c.) engrafted with the MC38 cancer cell line. Mice bearing established tumors were dosed with isotype control (IC) antibodies, anti-human CD39 antibody (molPH5201, described above), gemcitabine chemotherapy and anti-mouse PD-L1 antibody (an antibody that binds murine PD-L1 having an Fc domain with amino acid substitutions to eliminate binding to mouse Fcγ receptors.
Male and female huCD39KI mice were engrafted subcutaneously (s.c.) with 1×10^6 MC38 cancer cells. Treatments were initiated after mouse randomization. Mice were treated twice a week for two weeks with gemcitabine (25 mg/kg) or PBS (at day 8, 11, 15 and 18 after cell engraftment) and once a week for four weeks with either anti-human CD39 antibody (molPH5201) or the corresponding isotype control (IC) antibody (400 μg/mouse).
Randomization of mice into four groups was performed on day 7 post tumor cell engraftment, at a mean tumor volume of 72 mm^3±27 mm^3 with individual tumor volumes comprised between 37 and 130 mm^3.
(§1) Male and female huCD39KI mice were engrafted s.c. with 1×10^6 MC38. Treatments were initiated after mouse randomization. Mice were treated twice a week for two weeks with gemcitabine (25 mg/kg) or PBS, twice a week for three weeks with either anti-mouse PD-L1 antibody or the corresponding IC antibody (200 μg/mouse) and once a week for four or five weeks depending on the experiment with either anti-human CD39 antibody (molPH5201) or the corresponding IC antibody (400 μg/mouse). Mouse randomization into five groups was performed on day 7 post tumor cell engraftment at a mean tumor volume of 62 mm^3±23 mm^3 with individual tumor volumes comprised between 31 and 117 mm^3.
as §1, with “As in Experiment 1, male” for “Male”, “64” for “62”, “115” for “117”
as §1, with “As in Experiments 1 and 2, male” for “Male”, “engraftment,” for “engraftment”, “74 mm^3±21” for “62 mm^3±23”, “40” for “31”, “121” for “117”
The three experiments were pooled and results are shown in FIG. 9, showing Tumor growth of MC38 tumor in huCD39KI mice post treatment with gemcitabine+/−anti-PD-L1+/−molPH5201. MC38 tumor-bearing huCD39KI mice were randomized on day 7 and then treated as indicated with 25 mg/kg ip of gemcitabine or PBS, 200 μg ip of anti-mouse PD-L1 antibody or corresponding isotype control antibody and with 400 μg iv of molPH5201 or corresponding IC antibody. Graphs show tumor growth in each individual (n=31/group). CR: Complete Response.

The subject of a further data set is OAW42 (CD39+) cells. Briefly: eATP release in OAW42 (CD39+) cells with IPH5201 and docetaxel. Format: cell-based. The settings on record: docetaxel dose range, 30 h, FIG. 3B. As for the experimental part:
(§2) OAW42 (CD39+) cells were incubated with 10 or 50 μg/mL of IPH5201 and treated with a dose range of docetaxel. The measure of eATP release was performed 30 h after docetaxel treatment. eATP was measured in the cell culture supernatant with a luminescent-based assay (CellTiter-Glo®) and expressed in Luminescence Arbitrary Unit (AU). Means+/−SD.

For data set [2], the target named is T1, recombinant human CD39 protein (huCD39) (Homo sapiens, UniProt P49961).
T1 sequence (P49961 38-478 limits assumed): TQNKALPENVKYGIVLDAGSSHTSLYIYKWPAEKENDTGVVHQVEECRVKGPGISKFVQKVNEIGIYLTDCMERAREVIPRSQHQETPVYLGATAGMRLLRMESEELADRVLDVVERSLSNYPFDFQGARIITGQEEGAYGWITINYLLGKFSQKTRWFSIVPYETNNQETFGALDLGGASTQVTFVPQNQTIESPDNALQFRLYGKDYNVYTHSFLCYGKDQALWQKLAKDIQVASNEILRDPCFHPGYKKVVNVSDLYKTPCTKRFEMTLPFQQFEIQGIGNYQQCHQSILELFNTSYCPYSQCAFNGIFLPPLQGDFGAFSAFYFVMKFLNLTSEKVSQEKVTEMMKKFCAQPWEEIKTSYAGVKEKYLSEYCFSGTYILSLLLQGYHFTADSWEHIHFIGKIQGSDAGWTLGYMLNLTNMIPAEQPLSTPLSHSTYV
Briefly: eATP release by H1703 (CD39-) cells incubated with recombinant huCD39, with or without IPH5201, then docetaxel. Format: cell-based. The settings on record: H1703 (CD39-) cells; docetaxel 0.1 μM; 40 h; FIG. 3A. As for the experimental part: H1703 (CD39−) cells were incubated with recombinant human CD39 protein (huCD39) (400 ng/ml) to mimic soluble CD39 in tumor microenvironment with or without IPH5201 (humanized anti-CD39 antibody having the respective heavy and light chain amino acid sequences of SEQ ID NOS: 10 and 11) at 10 μg/mL and then treated with docetaxel (0.1 μM). The measure of extracellular ATP (eATP) release was performed 40 h after docetaxel treatment.
as §2

With `Nc1nc2[nH]cc(CCc3ccc(C(=O)N[C@@H](CCC(=O)O)C(=O)O)cc3)c2c(=O)[nH]1` [pemetrexed], the ATP release result in the data set on H1703 tumor cell line (48 h after Pemetrexed) is listed as “induced significant ATP release”.

Regarding durvalumab [reference compound], in data set [1], the “patients with TRAEs related to durvalumab” value was 57.9% and the “patients with TRAEs related to durvalumab, count” value was 11/19. On to `O=C1[O][Pt]2([NH][C@@H]3CCCC[C@H]3[NH]2)[O]C1=O` [oxaliplatin], for which, in the data set on H1703 tumor cell line (60 h after Oxaliplatin), the ATP release entry is reported as “induced significant ATP release”. With `O=c1[nH]cc(F)c(=O)[nH]1` [5-Fu, 5-FU], in the data set with H1703 tumor cell line (72 h after 5-FU), the ATP release entry is “induced significant ATP release”. With `Nc1ccn([C@@H]2O[C@H](CO)[C@@H](O)C2(F)F)c(=O)n1` [gemcitabine, reference compound], the ATP release entry in the data set with H1703 tumor cell line (48 h after Gemcitabine) is on record as “induced significant ATP release”. In addition, the “tumor growth compared to the control” value with MC38 cancer cell line (Experiment 1 (FIG. 6)) is given as “significantly slowed down tumor growth”; in the data set with MC38 cancer cell line (Experiment 2 (FIG. 7)) it was “significantly slowed down tumor growth”; with MC38 cancer cell line (Experiment 3 (FIG. 8)), “significantly inhibited tumor growth”. The “tumor growth compared to the control group” value in the data set with MC38 cancer cell line (gemcitabine +/- molPH5201 experiment (FIG. 5), gemcitabine 25 mg/kg, molPH5201 400 μg/mouse, p<0.001 where significant) is “drastically and significantly slowed down tumor growth”. For `CC(=O)O[C@@]12CO[C@@H]1C[C@H](O)[C@@]1(C)C(=O)[C@H](O)C3=C(C)[C@@H](OC(=O)[C@H](O)[C@@H](NC(=O)OC(C)(C)C)c4ccccc4)C[C@@](O)([C@@H](OC(=O)c4ccccc4)[C@H]21)C3(C)C` [docetaxel, reference compound], the eATP release result in the data set with OAW42 (CD39+) cells was “at best a modest release of eATP”. The “extracellular ATP (eATP) release” value in data set [2] is recorded as “induced strong release of eATP”. Moreover, in the data set with H1703 tumor cell line (40 h after Docetaxel), the ATP release entry is on record as “induced significant ATP release”.

Turning to `N.N.O=C([O-])C1(C(=O)[O-])CCC1.[Pt+2]` [carboplatin], the ATP release entry with H1703 tumor cell line (72 h after Carboplatin) is given as “induced significant ATP release”.

Turning to `N.N.[Cl][Pt][Cl]` [cisplatin], the ATP release entry in the data set on H1703 tumor cell line (24 h after Cisplatin treatment) is given as “induced significant ATP release”. On to `CC(=O)O[C@H]1C(=O)[C@@]2(C)[C@H]([C@H](OC(=O)c3ccccc3)[C@]3(O)C[C@H](OC(=O)[C@H](O)[C@@H](NC(=O)c4ccccc4)c4ccccc4)C(C)=C1C3(C)C)[C@]1(OC(C)=O)CO[C@@H]1C[C@@H]2O` [paclitaxel], for which, in the data set with H1703 tumor cell line (24 h after Paclitaxel), the ATP release entry is listed as “induced significant ATP release”.

Source of the values: patent publication US20260191954A1, “COMPOSITIONS AND METHODS FOR NEOADJUVANT TREATMENT IN CANCER” (INNATE PHARMA, priority 2022, published 2026).
